The record followed here is ChEMBL document CHEMBL1201862, “PubChem BioAssay data set” (2004).

SMILES strings stand for the structures.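 Assay format: 96-well plates, 48-hour exposure. At the GI50, growth is halved.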 Calls of active or inactive are those of the source. Rule as the data show it: active = GI50 up to about 1.1 µM and inactive = higher. Bounds are passed on as bounds.

Holding throughout (assay): growth of human tumour cells (NCI), 48 h
For experiment [1], the system named is UO-31.
Experiment [2] relates to A498.
Experiment [3] concerns 786-0.
The subject of experiment [4] is EKVX.
In experiment [5] the test system is NCI-H226.
The test system of experiment [6] is RPMI-8226.
Experiment [7] deals with SF-539.
In experiment [8] the test system is RXF 393.
Experiment [9] has as its system SF-268.
Experiment [10] concerns IGROV-1.
For experiment [11], the system named is MOLT-4.
For experiment [12], the system named is HCT-15.
Experiment [13] deals with ACHN.
Experiment [14] has as its system HL-60.

Regarding `COC(=O)[C@H]1COC(=S)N1C(=O)[C@@H](C)[C@H](O)C(C)C`, the GI50 in [1] was > 100 µM (inactive); in experiment [2], > 100 µM (inactive); in [3], > 100 µM (inactive); in experiment [4], > 100 µM (inactive); in [5], 12.8 µM (inactive); in experiment [6], > 100 µM (inactive). In addition, the GI50 in [7] is > 100 µM (inactive); in [8], > 100 µM (inactive); in [9] it was > 100 µM (inactive); in [10] it was > 100 µM (inactive); in experiment [11], > 100 µM (inactive); in experiment [12], above 100 µM. The GI50 in [13] and in [14] was > 100 µM (inactive) each time.

For the compound `COC(=O)C(C(=O)C(=O)Nc1ccc(N)cc1[N+](=O)[O-])c1nc2ccc(Cl)cc2nc1O` (configuration not stated), the GI50 in [1] was 41 µM (inactive); in [2], > 100 µM (inactive); in experiment [3], > 100 µM (inactive); in [4] it was > 100 µM (inactive); in experiment [5], 63 µM (inactive); in experiment [6] it was > 100 µM (inactive). In addition, the GI50 is > 100 µM (inactive) in experiment [7]; 60.7 µM (inactive) in experiment [8]; 72.9 µM (inactive) in experiment [9]; > 100 µM (inactive) in experiment [10]; > 100 µM (inactive) in [11]; above 100 µM in [12]. The GI50 in experiment [13] and in experiment [14] was > 100 µM (inactive) in each case.

As to `O=C(CC1Sc2ccccc2NC1=O)Nc1cc(Cl)ccc1Cl` (configuration not stated), the GI50 in [1], in experiment [2], in [3], in experiment [4], in experiment [5] and in experiment [6] was > 100 µM (inactive) each time. In addition, the GI50 is 92.3 µM (inactive) in [7]; > 100 µM (inactive) in experiment [8]; > 100 µM (inactive) in experiment [9]; > 100 µM (inactive) in experiment [10]; 29.8 µM (inactive) in experiment [11]; above 100 µM in experiment [12]. Further, the GI50 in [13] and in experiment [14] was > 100 µM (inactive) throughout.

As to `O=C(CCc1nnc(S)[nH]1)Nc1cc(Cl)ccc1Cl`, the GI50 in experiment [1], in experiment [2], in experiment [3], in experiment [4], in [5] and in experiment [6] was > 100 µM (inactive) in each case. For the same compound, the GI50 in experiment [7] was > 100 µM (inactive); in experiment [9] it was > 100 µM (inactive); in [10], > 100 µM (inactive); in experiment [11] it was > 100 µM (inactive); in experiment [12], above 100 µM; in experiment [13], > 100 µM (inactive). Further, the GI50 in experiment [14] is > 100 µM (inactive).

For `Cc1cccc(C(C)(C)C)c1NC(=O)CC1C(=O)Nc2ccccc2S1(=O)=O` (configuration not stated), the GI50 in experiment [1] was 11.2 µM (inactive); in experiment [2], 14.9 µM (inactive); in experiment [3] it was 10 µM (inactive); in experiment [4], 2.87 µM (inactive); in experiment [5], 16.7 µM (inactive); in [6], 3.24 µM (inactive). The GI50 in experiment [7] is 3.14 µM (inactive); in experiment [8], 13.4 µM (inactive); in experiment [9], 11.2 µM (inactive); in [10] it was 9.33 µM (inactive); in experiment [11], 2.28 µM (inactive); in experiment [12], 4.76 µM. Besides, the figures for the GI50 in experiment [13] and in experiment [14] were 10.8 µM (inactive) and 3.25 µM (inactive), respectively.

For `COc1ccc(C2S/C(=C\c3ccccc3)C(=O)N2NC(=O)Cc2ccccc2)cc1` (configuration not stated), the GI50 in experiment [1], in experiment [2], in [3], in experiment [5], in experiment [6] and in [7] was > 100 µM (inactive) in each case. In addition, the GI50 was > 100 µM (inactive) in [8]; > 100 µM (inactive) in [9]; > 100 µM (inactive) in experiment [10]; > 100 µM (inactive) in experiment [11]; 40.7 µM in experiment [12]; > 100 µM (inactive) in [13]. Also, the GI50 in [14] was 55.8 µM (inactive).

In the case of `CC(=O)OC(C)(C)/C=C/C(=O)[C@](C)(O)[C@H]1[C@H](O)C[C@@]2(C)[C@@H]3CC=C4[C@@H](C[C@H](O)[C@H](O)C4(C)C)[C@]3(C)C(=O)C[C@]12C`, the GI50 in [1] is 0.839 µM (active); in experiment [2], 0.853 µM (active); in [3], 0.24 µM (active); in experiment [4], 0.601 µM (active); in [5], 0.984 µM (active); in [6], 0.107 µM (active). For the same compound, the GI50 in experiment [7] is 0.303 µM (active); in [8] it was 0.383 µM (active); in [9], 0.397 µM (active); in experiment [10], 0.925 µM (active); in experiment [11] it was 0.289 µM (active); in experiment [12], 0.294 µM. Besides, the values for the GI50 in experiment [13] and in experiment [14] were 0.498 µM (active) and 0.243 µM (active), respectively.

In the case of `C[C@]12CCc3nonc3C1CC[C@@H]1C2CC[C@]2(C)NC(=O)CCC12` (some centres not stated), the GI50 in experiment [1], in experiment [2], in experiment [3], in experiment [4], in [5] and in [6] was > 100 µM (inactive) each time. Further, the GI50 is > 100 µM (inactive) in experiment [7]; > 100 µM (inactive) in experiment [8]; > 100 µM (inactive) in experiment [9]; > 100 µM (inactive) in experiment [10]; > 100 µM (inactive) in experiment [11]; above 100 µM in experiment [12]. Further, the GI50 in experiment [13] and in [14] was > 100 µM (inactive) in each case.

For `ClCCNCCNCCCl.ClCCNCCNCCCl.[O-][Cl+3]([O-])([O-])O`, the GI50 in [1] was 26.8 µM (inactive); in experiment [2] it was 57.1 µM (inactive); in experiment [3], 18.8 µM (inactive); in [4], > 100 µM (inactive); in experiment [5], > 100 µM (inactive); in experiment [6], 33.3 µM (inactive). Further, the GI50 is 26.2 µM (inactive) in experiment [7]; 40.7 µM (inactive) in experiment [8]; 25.5 µM (inactive) in [9]; 22.5 µM (inactive) in experiment [10]; 31.4 µM (inactive) in experiment [11]; 55.8 µM in [12]. The GI50 is 21.9 µM (inactive) in experiment [13] and 30.3 µM (inactive) in experiment [14].

`[O-][S+]1C(=c2ccc(=C3Sc4ccccc4S3)cc2)Sc2ccccc21` (configuration not stated): the GI50 was 17.2 µM (inactive) in experiment [1]; 15.8 µM (inactive) in experiment [2]; 17 µM (inactive) in [3]; 20 µM (inactive) in experiment [4]; 19.2 µM (inactive) in experiment [5]; > 100 µM (inactive) in experiment [6]. In addition, the GI50 was 15.6 µM (inactive) in experiment [7]; 24.2 µM (inactive) in experiment [8]; 12.4 µM (inactive) in experiment [9]; 38.5 µM (inactive) in experiment [10]; > 71.9 µM (inactive) in experiment [11]; 15.3 µM in experiment [12]. Moreover, the GI50 is 19.5 µM (inactive) in experiment [13] and > 100 µM (inactive) in experiment [14].

As to `C/C(O)=C1\CC2CN3CCc4c([nH]c5ccccc45)C3CC2CC1=O` (configuration not stated), the GI50 in experiment [1] was 37.9 µM (inactive); in [2], > 100 µM (inactive); in experiment [3], 38 µM (inactive); in [4], 37 µM (inactive); in experiment [5] it was 54.1 µM (inactive); in experiment [7] it was 75.2 µM (inactive). Further, the GI50 in [8] is 20.9 µM (inactive); in experiment [9] it was 54.6 µM (inactive); in experiment [10], > 100 µM (inactive); in experiment [11], 21.8 µM (inactive); in experiment [12], 45.4 µM; in [13], 82.8 µM (inactive). The GI50 in [14] was 32.7 µM (inactive).

`COC(=O)C(c1n[nH]c2ccccc12)C(C(=O)OC)c1n[nH]c2ccccc12` (configuration not stated): the GI50 in [1] is > 100 µM (inactive); in experiment [2], > 100 µM (inactive); in [3], 44.9 µM (inactive); in experiment [4] it was > 100 µM (inactive); in experiment [5], > 100 µM (inactive); in [6], 13.5 µM (inactive). The GI50 in [7] was 17 µM (inactive); in experiment [8], 24.9 µM (inactive); in experiment [9], > 100 µM (inactive); in experiment [10], > 100 µM (inactive); in experiment [11] it was 22.7 µM (inactive); in [12] it was above 100 µM. In addition, the results for the GI50 in experiment [13] and in experiment [14] were 49.4 µM (inactive) and 16 µM (inactive), respectively.

Turning to `Cc1c(C(=O)CC(=O)C(=O)Nc2ccc(Cl)cc2)[n+]([O-])c2ccccc2[n+]1[O-]`, the GI50 in experiment [1], in experiment [2], in experiment [3], in experiment [4], in experiment [5] and in [6] was > 100 µM (inactive) throughout. The GI50 was > 100 µM (inactive) in experiment [7]; > 100 µM (inactive) in experiment [9]; > 100 µM (inactive) in [10]; > 100 µM (inactive) in experiment [11]; above 100 µM in experiment [12]; > 100 µM (inactive) in experiment [13]. Moreover, the GI50 in experiment [14] was > 100 µM (inactive).

Consider `CC(C)(C)N/N=C(\C(=O)Nc1nnc(S)[nH]1)C1C(=O)Nc2ccccc2[S+]1[O-]` (configuration not stated), for which the GI50 in experiment [1], in experiment [2], in [3], in experiment [4], in experiment [5] and in experiment [6] was > 100 µM (inactive) throughout. The GI50 in experiment [7] was > 100 µM (inactive); in experiment [8] it was > 100 µM (inactive); in experiment [9], > 100 µM (inactive); in experiment [10], > 100 µM (inactive); in [11] it was > 100 µM (inactive); in [12], above 100 µM. For the same compound, the GI50 in experiment [13] and in [14] was > 100 µM (inactive) in each case.
